For experiment [1], the system named is osteoporotic model mice. As to the kind of experiment: μCT three-dimensional trabecular structure analysis of femoral distal epiphyses. The format is in vivo, mouse. The settings on record: for Conclusion of 3-D image analysis: effects on bone density and trabecular structure: OVX mice, distal epiphyses and diaphyses, FIGS. 8 and 9; for Order according to the importance of the effects on improvement of trabecular bone structure: ranked after sham and risedronate groups. On the procedure: (§1) For study ICR female model mice of 10 weeks (of 20 g) were used. These mice underwent ovariectomy (OVX control group) and sham operation (sham operated group), and were subsequently fed with a conventional diet for 2 months, and then divided into 6 groups, each group having 10 mice. Of these, an OVX control group and a sham operated group were fed with 1.5 to 1.8% calcium containing feed which contained calcium carbonate as a calcium source. Further as a reference group, one group was treated with a bisphosphonate preparation (risedronate), which is an anti-osteoporotic agent showing obviously higher bone density. Remaining 3 groups were fed with special feeds, containing foodstuff and food additives. Combinations of foodstuff and food additives used in the present study are shown below in Table 4.
(§2) After being fed these feeds for 2 months, mice were decapitated for blood collection. Then serum was separated from the collected blood, and after that calcium, phosphorus, and magnesium concentrations and alkaline phosphatase level of the serum were determined. Furthermore, after a resection of femurs, a three-dimensional bone densitometry and bone structure analysis were conducted on the femoral distal epiphyses and diaphyses, using pQCT (Peripheral Quantitative Computed Tomography) and μCT (micro focus X-ray CT).
For an analysis of the trabecular structure, three-dimensional image data of femoral distal epiphyses were acquired using X-ray μCT (MCT-CB130F, Hitachi Medico), of 8×8 μm focus, with micro focus X-ray tube. As conditions for imaging, tube voltage was 40 kV, tube current 100 μA, and voxel size 17.8×17.8×17.8 μm, so that 50 volume data for each were acquired. Three-dimensional images were reconstructed based on the acquired 50 two-dimensional images of a trabecular bone and a cortical bone. 3D parameters were then determined on these 3D images using trabecular structure measuring software (TRI/3D-BON; RATOC System Engineering, Co., Ltd). The determined structural parameters are listed below in Table 5.
Student's t-test was used for statistical treatment for comparison between the groups. Only the parameters showing significant difference in the OVX control group are compared to those in the remaining groups.

The subject of experiment [2] is osteoporotic model mice. As to the kind of experiment: pQCT three-dimensional bone densitometry of femoral distal epiphyses and diaphyses. The experiment is classed as in vivo, mouse. The settings on record: for Items showing a significant difference: number of the 14 pQCT parameters (epiphyses and diaphyses) differing significantly from OVX control group; for Epiphyses Bone Density, significant difference vs OVX control group / Epiphyses Cortical Bone Cross-Section, significant difference vs OVX control group / Epiphyses Cortical Bone Thickness, significant difference vs OVX control group / Epiphyses Trabecular Bone Density, significant difference vs OVX control group: femoral distal epiphyses. On the procedure: as §1, §2
Subsequently, a bone mass density (mg/cm^3) as a physical quantity was analyzed separately for trabecular bones and cortical bones based on three-dimensional bone densitometry conducted using pQCT on the femoral distal epiphyses and diaphyses and cross-sectional images acquired in pQCT, and bone strength index was identified based on cortical bone width, second moment of area, and section modulus etc. Student's t-test was used for statistical treatment for comparison between the groups.

Experiment [3] relates to osteoporotic model mice. As to the kind of experiment: Mineral concentration and ALP activity in mouse sera. The experiment is classed as in vivo. The conditions noted are these: ovariectomized ICR female mice, fed test feeds for 2 months (doses Table 4). On the procedure:
as §1, §2
Subsequently, blood was collected from the tested mice of each group, and mineral concentration and ALP activity in serum were determined. Blood collection was conducted by decapitating under a twilight sleep. The collected blood stood for 1 hour at ice temperature, and thereafter the serum was separated by a centrifuge for 10 minutes at 1000 rpm. Calcium amount was determined by chelete coloring method. 50 μL of serum was added to 5 mL of a 0.88 M monoethanolamine buffer adjusted to pH=11, and a mixture of o-cresol-phthalein complexone and 8-quinolinol as a coloring agent was further added. The resulting mixture was sufficiently stirred and stood for 5 minutes, and thereafter absorbance at 570 nm determined using a spectrometer. Phosphorus was determined by direct molybdenum blue method. After 0.2 mL of serum was added to 5 mL of a coloring agent and the resulting mixture stood for 15 minutes at room temperature, absorbance at 690 nm was determined using a spectrometer. The coloring agent was prepared by adding a surfactant to a mixture of ammonium molybdate, ammonium ferrous sulfate and sulfate. Magnesium was determined by xylidyl blue method. 3 mL of a coloring agent was added to 20 μL of serum and the resulting mixture stood for 10 minutes at room temperature, and thereafter absorbance at 520 nm was determined using a spectrometer. The coloring agent was prepared by adding a surfactant to a mixture of xylylazo violet I and ethylene glycol tetraacetic acid.
Alkaline phosphatase was determined by phenyl phosphoric acid substrate method. After 50 μL of serum was added to 2 mL of a substrate buffer and heated at 37° C. for 15 minutes, 2 mL of 36 mM potassium ferricyanide. The resulting mixture was sufficiently stirred, and thereafter absorbance at 570 nm was determined using a spectrometer. The substrate buffer was prepared by adding a mixture of 4-aminoantipyrine and phenylphosphoric acid to 50 mM carbonate buffer adjusted to pH=10.5.
In all of these determinations assay kits for clinical and biochemical use manufactured by Wako Pure Chemicals, Co., Ltd. were used.

Where [4] appears, read: pQCT, femoral diaphyses, p value, Student's t-test, 2 months feeding.
Where [5] appears, read: pQCT, femoral diaphyses, p value, Student's t-test, 2 months feeding, listed as risedronate.
Setting [6] is: pQCT, p value, Student's t-test, 2 months feeding.
[7] abbreviates: pQCT, p value, Student's t-test, 2 months feeding, listed as risedronate.

Regarding `CC(C)=CCC/C(C)=C/CC/C(C)=C/CC/C(C)=C/CC1=C(C)C(=O)c2ccccc2C1=O` [MK-4, Vitamin K2 (MK-4)], the “Conclusion of 3-D image analysis: effects on bone density and trabecular structure” value in experiment [1] is listed as “improvement in bone internal structure was observed as a prevalent effect”. The “Order according to the importance of the effects on improvement of trabecular bone structure” value in experiment [1] (μCT, femoral distal epiphyses) was “MK7, the composite and MK4 is arranged in this order”. Besides, the “Items showing a significant difference” value in experiment [2] came out at 2. Also, the “Diaphyses Trabecular Bone Density, significant difference vs OVX control group” value in experiment [2] (setting [4]) is recorded as “p < 0.05”. For the same compound, in experiment [3], the “ALP activity in serum” value is reported as 3.52 ± 1.82 BL unit, the Ca in serum is given as 9.60 ± 0.51 mg/dL, the Mg in serum worked out at 2.67 ± 0.28 mg/dL and the P in serum is recorded as 6.96 ± 0.44 mg/dL.

As for `CC(C)=CCC/C(C)=C/CC/C(C)=C/CC/C(C)=C/CC/C(C)=C/CC/C(C)=C/CC/C(C)=C/CC1=C(C)C(=O)c2ccccc2C1=O` [MK-7, Vitamin K2 (MK-7)], the “Conclusion of 3-D image analysis: effects on bone density and trabecular structure” value in experiment [1] was “both effects on an increased bone density and improved trabecular structure, with the improvement in trabecular structure being prevalent effect”. Besides, the “Order according to the importance of the effects on improvement of trabecular bone structure” value in experiment [1] (μCT, femoral distal epiphyses) is “MK7, the composite and MK4 is arranged in this order”. In addition, the “Items showing a significant difference” value in experiment [2] is listed as 4. Further, in experiment [2] (pQCT, femoral diaphyses, all parameters), the “Diaphyses parameters, difference vs OVX control group” value was “no significant difference”. Further, in experiment [3], the “ALP activity in serum” value stood at 3.77 ± 1.76 BL unit, the Ca in serum was found to be 9.34 ± 1.50 mg/dL, the Mg in serum is recorded as 2.63 ± 0.63 mg/dL and the P in serum is reported as 7.12 ± 0.64 mg/dL.

Consider `O=P(O)(O)C(O)(Cc1cccnc1)P(=O)(O)O` [Risedronate, risedronate], for which, in experiment [1] (μCT, femoral distal epiphyses, vs OVX control group (Table 9)), the “Number of parameters with significant effects on improvement of trabecular bone structure” value is listed as 12. Moreover, in experiment [2], the “Items showing a significant difference” value turned out to be 6. Besides, in experiment [2] (setting [4]), the “Diaphyses Cortical Bone Cross-Section, significant difference vs OVX control group” value is given as “p < 0.05” and the “Diaphyses Cortical Bone Thickness, significant difference vs OVX control group” value was “p < 0.05”. Further, in experiment [2] (setting [5]), the “Diaphyses Cortical Bone Cross-Section, significant difference vs OVX control group” value is “significant increase” and the “Diaphyses Cortical Bone Thickness, significant difference vs OVX control group” value was “significant increase”. Besides, in experiment [2] (setting [6]), the “Epiphyses Bone Density, significant difference vs OVX control group” value is “p < 0.01”; the “Epiphyses Cortical Bone Cross-Section, significant difference vs OVX control group” value is “p < 0.05”; the “Epiphyses Cortical Bone Thickness, significant difference vs OVX control group” value is recorded as “p < 0.05”; the “Epiphyses Trabecular Bone Density, significant difference vs OVX control group” value is recorded as “p < 0.05”. Moreover, in experiment [2] (setting [7]), the “Epiphyses Bone Density, significant difference vs OVX control group” value was “significant increase”; the “Epiphyses Cortical Bone Cross-Section, significant difference vs OVX control group” value is given as “significant increase”; the “Epiphyses Cortical Bone Thickness, significant difference vs OVX control group” value is reported as “significant increase”; the “Epiphyses Trabecular Bone Density, significant difference vs OVX control group” value is given as “significant increase”. In experiment [3], the “ALP activity in serum” value came to 3.65 ± 1.26 BL unit, the Ca in serum came to 9.02 ± 1.15 mg/dL, the Mg in serum worked out at 3.12 ± 1.21 mg/dL and the P in serum stood at 6.95 ± 0.32 mg/dL.

(Values after US20090110748A1, “Biocompatible Material and Process for Manufacturing the Same” (priority 2007, published 2009).)
